{"source": "patent US20260335285A1", "about": "“A TOPICAL COMPOSITION COMPRISING CHLORINE E6 AND ZINC L-PYROGLUTAMATE” (ZXA GROUP LTD., priority 2022, published 2026)", "origin": "cited, not measured here", "conditions": "known in the art; topical"}
{"smiles": "C=Cc1c(C)c2cc3nc(c(CC(=O)O)c4[nH]c(cc5nc(cc1[nH]2)C(C)=C5CC)c(C)c4C(=O)O)[C@@H](CCC(=O)O)[C@@H]3C", "note": "[chlorine e6, (17S,18S)-18-(2-carboxyethyl)-20-(carboxymethyl)-12-ethenyl-7-ethyl-3,8,13,17-tetramethyl-17,18,22,23-tetrahydroporphyrin-2-carboxylic acid]", "values": [{"measurement": "delivery into the skin", "result": "inefficient delivery into the skin"}]}
